Tested on: human meprin-β (hMPβ) and human APP in HEK293 cells
Assay: Aβ secreted by HEK293 cells after transient overexpression of human meprin-β and human APP, ELISA
Type: cell-based
Conditions: 20 μM actinonin (1% DMSO), 24 h, HEK293, ELISA (IBL) with antibody 6E10
Method: The sequence of human APP was cloned into the vector pcDNA3.1 (Invitrogen) and various mutations were inserted. The resulting clones were named pcDNA-hAPP (for wildtyp APP), pcDNA-hAPPsw (for mutation K595N, M596L) and pcDNA-hAPP/E3Q (for mutation E599Q). For transient overexpression of human meprin and human APP the cells were cultured in 6-well dishes until 90% confluence, transfected with 2 μg of vector with meprin and 2 μg of one of the described APP-vectors per well using Lipofectamin2000 (Invitrogen) according to manufacturer's manual. Control samples were transfected with pcDNA3.1. After 24 h the solution was replaced by medium free of serum and phenolred. Medium was collected 24 h later and supplemented with a protease inhibitor cocktail (complete, Mini, Roche), centrifuged at 500×g and 10 000×g, subsequently to remove cells and debris. The supernatant was stored at −80 until analysis by ELISA (IBL) and urea western-blot for identification of liberated Aβ species.
24 h after co-transfection of HEK293 cells with human APP and meprin (as described for example 4) the medium was replaced by medium free of serum and phenolred supplemented with 20 μM Actinonin (1% DMSO). 24 hours later medium was collected, supplemented with inhibitor cocktail (complete, Mini, Roche), centrifuged at 500×g and 10 000×g, subsequently to remove cells and debris. […]

CCCCC[C@H](CC(=O)NO)C(=O)N[C@H](C(=O)N1CCC[C@H]1CO)C(C)C [Actinonin]
Effect on the increase of Aβ secretion after overexpression of hAPP and hMPβ: reduced to almost the basal level

Source: patent US20110152341A1, “CLEAVAGE OF B-AMYLOID PRECURSOR PROTEIN” (PROBIODRUG AG, priority 2009, published 2011)
